According to ChEMBL document CHEMBL1201862, “PubChem BioAssay data set” (2004):
Active and inactive are the calls of the source.

Columns and labels:
[1] = off-target signal loss in HeLa-CEM21 co-culture – HeLa F-luc CTL cells, cherry-picked, counter-screen for HIV-1 Env fusion inhibitor project, dose response (AID 652040); type: functional, cell-based;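 also: potency for signal decrease marking cytotoxic or nonspecific inhibition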
Protein Wnt-3a = Protein Wnt-3a (Mus musculus, UniProt P27467); assay: Wnt3a-driven reporter signaling inhibition, dose response, selectivity assay for Gli-SUFU antagonist project, Wnt-LIGHT cells, luminescence (AID 651570); type: functional; settings: read-out: IC50_Mean;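 also: Wnt-LIGHT reporter cells stimulated with conditioned medium from Wnt3a-producing cells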
Chain of Protein Wnt-3a (P27467 whole entry): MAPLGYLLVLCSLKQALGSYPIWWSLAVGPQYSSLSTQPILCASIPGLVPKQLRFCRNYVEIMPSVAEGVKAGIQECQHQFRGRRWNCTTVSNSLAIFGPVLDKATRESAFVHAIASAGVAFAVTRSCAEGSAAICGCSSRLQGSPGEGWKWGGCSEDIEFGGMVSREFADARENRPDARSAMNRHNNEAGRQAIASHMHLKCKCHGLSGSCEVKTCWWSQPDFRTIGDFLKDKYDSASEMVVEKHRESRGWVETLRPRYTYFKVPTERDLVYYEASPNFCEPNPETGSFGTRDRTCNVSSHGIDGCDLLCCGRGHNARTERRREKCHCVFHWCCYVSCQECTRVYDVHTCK

[2] = cytotoxicity in HEK-293T cells, dose response, cytotoxicity control for TCR NF-kB inhibitor project, luminescence, T-cell screen hits (AID 489026); type: functional, cell-based;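 also: cells exposed to compound about 14 hours before the viability readout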
[3] = inhibitors of HIV Env-driven cell fusion, dose response, cherry-pick (AID 652057); type: functional, cell-based
[4] = inhibitors of clade B AD8 Env fusion, dose response, cell-based, cherry-pick (AID 652062); type: functional;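 also: luciferase signal from cell-cell fusion driven by HIV-1 clade B AD8 Env; potency is for inhibitors of fusion seen as a drop in luminescence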
[5] = ZM109 Env clade C HIV-1 fusion inhibitors, dose response, HeLa effector, CEM target cells, luciferase, cherry-pick (AID 652058); type: functional, cell-based
[6] = inhibitors of firefly luciferase expression or activity, dose response, H4 neuroglioma cells, luminescence (AID 1990); type: functional, cell-based
[7] = Luminescence Cell-Based Dose Response HTS to Identify Inhibitors of 5'UTR Stem-Loop Driven Prion Protein mRNA Translation in H4 Neuroglioblastoma Cells. [Related pubchem assays: 1827 (Project Summary), 1813 (Primary HTS)]; type: functional
HEK293 = assay: inhibitors of LMP1-driven NF-kB reporter, dose response, cell-based, HEK293, luciferase, cherry-pick (AID 588343); type: functional; settings: Homo sapiens
[8] = inhibitors of SNCA 5'UTR-driven reporter translation, confirmation, H4 neuroglioma cells, luminescence (AID 1988); type: functional, cell-based
[9] = biological target: T1, Heat shock factor protein 1 (Mus musculus, UniProt P38532); assay: inhibition of MG132-induced HSE-luciferase signal, confirmation, cell-based, NIH3T3, luminescence, dose retest (AID 2382); type: functional;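 also: NIH3T3 fibroblasts with HSF1-driven luciferase reporter stressed by proteasome inhibitor MG132; luminescence from HSF1-driven luciferase expression after 8 hours of MG132 stress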
T1 sequence (P38532 whole entry): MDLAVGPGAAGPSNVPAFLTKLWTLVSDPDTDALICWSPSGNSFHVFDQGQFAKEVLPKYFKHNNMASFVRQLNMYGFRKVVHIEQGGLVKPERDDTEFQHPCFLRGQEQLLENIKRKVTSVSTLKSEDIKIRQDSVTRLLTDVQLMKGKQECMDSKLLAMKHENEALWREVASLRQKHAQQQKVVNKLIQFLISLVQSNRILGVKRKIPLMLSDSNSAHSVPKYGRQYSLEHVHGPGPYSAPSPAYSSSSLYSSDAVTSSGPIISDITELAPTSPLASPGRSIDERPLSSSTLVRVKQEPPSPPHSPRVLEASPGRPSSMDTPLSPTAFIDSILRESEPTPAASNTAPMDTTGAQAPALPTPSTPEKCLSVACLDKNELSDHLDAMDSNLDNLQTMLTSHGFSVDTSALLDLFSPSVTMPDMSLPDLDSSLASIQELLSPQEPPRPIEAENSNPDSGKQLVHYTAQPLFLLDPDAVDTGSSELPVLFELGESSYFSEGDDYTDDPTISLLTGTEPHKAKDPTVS

Leucine aminopeptidase = biological target: T2, Leucine aminopeptidase (Plasmodium falciparum 3D7, UniProt Q8IL11); assay: P. falciparum M17LAP inhibitors, primary screen, biochemical, fluorogenic H-Leu-NHMec substrate, 1536-well (AID 1619); type: functional
T2 sequence (Q8IL11 whole entry): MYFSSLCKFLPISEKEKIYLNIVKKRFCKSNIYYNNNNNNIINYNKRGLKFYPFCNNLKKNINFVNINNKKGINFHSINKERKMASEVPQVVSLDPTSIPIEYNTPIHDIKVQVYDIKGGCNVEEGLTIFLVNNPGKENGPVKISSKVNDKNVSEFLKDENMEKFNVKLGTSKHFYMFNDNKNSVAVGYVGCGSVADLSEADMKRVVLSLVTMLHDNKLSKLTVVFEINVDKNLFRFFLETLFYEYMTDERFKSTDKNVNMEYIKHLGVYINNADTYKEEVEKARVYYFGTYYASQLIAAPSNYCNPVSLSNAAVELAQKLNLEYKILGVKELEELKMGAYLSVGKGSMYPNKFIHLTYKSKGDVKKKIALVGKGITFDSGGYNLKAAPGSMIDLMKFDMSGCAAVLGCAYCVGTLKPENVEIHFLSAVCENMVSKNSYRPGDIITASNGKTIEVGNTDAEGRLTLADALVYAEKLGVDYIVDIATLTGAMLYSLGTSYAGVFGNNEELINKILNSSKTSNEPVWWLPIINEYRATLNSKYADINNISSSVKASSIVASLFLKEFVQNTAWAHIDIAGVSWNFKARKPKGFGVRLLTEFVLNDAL

[10] = system: Streptococcus sp. 'group A'; assay: growth inhibition of control SK(-) GAS strain, dose response, counter-screen for streptokinase expression inhibitor project, luminescence, kanamycin, BacTiterGlo, confirmation (AID 1900); type: functional, organism-based
Streptococcus = assay: Group A Streptococcus viability loss, dose response, counter-screen for streptokinase expression inhibitor project, luminescence, BacTiterGlo (AID 1915); type: functional, organism-based;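 also: potency for reduction of bacterial viability or growth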
Streptokinase A = biological target: T3, Streptokinase A (Streptococcus pyogenes serotype M1, UniProt P10520); assay: S. pyogenes streptokinase expression inhibitors, potency, dose response, plasminogen activation absorbance, OD405 (AID 1914); type: functional, Streptococcus pyogenes M1 GAS;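 also: secreted streptokinase activity via plasminogen activation per viability signal from cell pellet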
T3 sequence (P10520 whole entry): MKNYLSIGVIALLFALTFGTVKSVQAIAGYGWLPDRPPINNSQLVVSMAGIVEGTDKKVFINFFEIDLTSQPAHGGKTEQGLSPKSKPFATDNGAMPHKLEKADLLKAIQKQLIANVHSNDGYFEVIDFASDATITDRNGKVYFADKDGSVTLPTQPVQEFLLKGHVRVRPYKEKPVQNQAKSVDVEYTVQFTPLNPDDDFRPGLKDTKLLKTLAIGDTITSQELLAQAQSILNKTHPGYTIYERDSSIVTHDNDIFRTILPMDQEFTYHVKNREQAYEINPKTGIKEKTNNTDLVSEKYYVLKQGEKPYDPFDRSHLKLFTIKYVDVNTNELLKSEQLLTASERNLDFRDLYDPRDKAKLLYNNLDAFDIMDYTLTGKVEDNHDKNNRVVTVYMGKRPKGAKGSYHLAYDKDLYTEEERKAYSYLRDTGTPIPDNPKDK

[11] = biological target: T4, Long-chain-fatty-acid--AMP ligase FadD28 (Mycobacterium tuberculosis, UniProt P9WQ59); assay: Fluorescence polarization aasay to screen for inhibitors that compete for the binding of FadD28 to a bisubstrate Measured in Biochemical System Using Plate Reader - 2147-01_Inhibitor_Dose_CherryPick_Activity.; type: functional, Mycobacterium tuberculosis H37Rv
T4 sequence (P9WQ59 whole entry): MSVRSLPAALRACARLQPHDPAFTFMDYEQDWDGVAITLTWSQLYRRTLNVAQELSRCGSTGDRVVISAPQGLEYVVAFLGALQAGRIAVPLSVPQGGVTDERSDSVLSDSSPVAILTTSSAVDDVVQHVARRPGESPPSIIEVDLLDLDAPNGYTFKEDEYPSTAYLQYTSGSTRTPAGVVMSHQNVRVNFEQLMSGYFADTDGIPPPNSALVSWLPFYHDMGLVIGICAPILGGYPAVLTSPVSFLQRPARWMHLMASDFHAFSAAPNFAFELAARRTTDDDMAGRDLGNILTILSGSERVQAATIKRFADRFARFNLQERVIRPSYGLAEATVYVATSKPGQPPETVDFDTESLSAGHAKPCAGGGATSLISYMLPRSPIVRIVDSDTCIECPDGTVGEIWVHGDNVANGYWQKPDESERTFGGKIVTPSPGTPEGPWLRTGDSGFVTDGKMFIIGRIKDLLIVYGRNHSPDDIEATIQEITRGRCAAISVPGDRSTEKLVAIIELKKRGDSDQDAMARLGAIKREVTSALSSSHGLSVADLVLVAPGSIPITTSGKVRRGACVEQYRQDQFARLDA

Aminopeptidase N = biological target: T5, Aminopeptidase N (Plasmodium falciparum FcB1/Columbia, UniProt O96935); assay: P. falciparum M1AAP inhibitors, biochemical, fluorogenic H-Leu-NHMec substrate, 1536-well (AID 1445); set-up: species or system Plasmodium falciparum 3D7, 3D7
T5 sequence (O96935 whole entry): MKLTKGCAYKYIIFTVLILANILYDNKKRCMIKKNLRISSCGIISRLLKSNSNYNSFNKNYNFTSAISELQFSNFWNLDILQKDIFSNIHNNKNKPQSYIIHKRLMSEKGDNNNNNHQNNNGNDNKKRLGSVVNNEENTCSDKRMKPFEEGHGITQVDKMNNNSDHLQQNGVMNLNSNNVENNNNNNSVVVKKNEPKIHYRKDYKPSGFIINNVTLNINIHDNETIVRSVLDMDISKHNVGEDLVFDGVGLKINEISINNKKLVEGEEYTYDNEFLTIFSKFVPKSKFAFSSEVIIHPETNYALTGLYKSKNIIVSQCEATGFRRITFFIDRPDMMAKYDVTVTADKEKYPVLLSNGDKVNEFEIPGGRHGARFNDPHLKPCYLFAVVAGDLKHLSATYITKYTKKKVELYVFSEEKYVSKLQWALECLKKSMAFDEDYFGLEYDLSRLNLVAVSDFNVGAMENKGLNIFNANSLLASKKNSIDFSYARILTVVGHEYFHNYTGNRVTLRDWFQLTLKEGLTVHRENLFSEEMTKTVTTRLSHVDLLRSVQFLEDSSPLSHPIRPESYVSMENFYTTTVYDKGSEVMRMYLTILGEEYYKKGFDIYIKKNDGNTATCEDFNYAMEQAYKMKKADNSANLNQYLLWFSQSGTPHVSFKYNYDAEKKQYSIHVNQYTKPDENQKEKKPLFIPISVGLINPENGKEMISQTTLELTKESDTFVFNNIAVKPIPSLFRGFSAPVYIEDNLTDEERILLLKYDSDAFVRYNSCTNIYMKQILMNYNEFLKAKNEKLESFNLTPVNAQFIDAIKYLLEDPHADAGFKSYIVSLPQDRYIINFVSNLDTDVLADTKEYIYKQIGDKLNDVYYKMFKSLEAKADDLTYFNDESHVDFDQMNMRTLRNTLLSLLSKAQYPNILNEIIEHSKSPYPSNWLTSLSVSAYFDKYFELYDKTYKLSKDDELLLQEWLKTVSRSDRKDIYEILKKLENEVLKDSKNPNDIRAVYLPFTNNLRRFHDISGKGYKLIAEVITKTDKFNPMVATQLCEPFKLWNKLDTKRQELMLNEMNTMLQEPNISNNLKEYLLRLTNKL

Cc1nc2ccccc2c2c1CC(C(C)(Cl)Br)O2 (stereo unspecified)
inactive: AC50 [1] > 70 µM | IC50 [2] > 80 µM
active: IC50 (Protein Wnt-3a) 3.82 µM | AC50 [3] 27.6 µM | AC50 [4] 1.8 µM

NC(=O)c1sc2nc3c(c(-c4cccs4)c2c1N)CCCCC3
active: AC50 [1] 1.67 µM | AC50 [5] < 0.26 µM | EC50 [6] 16.5 µM | EC50 [7] 9.4 µM | AC50 (HEK293) 2.27 µM | EC50 [8] 11.1 µM | EC50 [9] 0.285 µM | AC50 [3] 0.743 µM | AC50 [4] 1.43 µM

Cc1n[nH]c(C)c1S(=O)(=O)N(CC(=O)NC1CCCC1)c1ccc(C(C)C)cc1
active: AC50 [1] 6.27 µM | AC50 [5] 2.38 µM | AC50 [3] 3.91 µM | AC50 [4] 3.53 µM

CCCCn1c(N)c(N(CC(C)C)C(=O)c2ccc(S(=O)(=O)N(CC)c3ccccc3)cc2)c(=O)[nH]c1=O
active: AC50 [1] 0.877 µM | AC50 [5] < 0.26 µM | AC50 [3] 0.402 µM | AC50 [4] 2.78 µM

COC(=O)[C@@]1(C)[C@H]2C(=O)N(Cc3ccccc3)C(=O)[C@H]2[C@H]2CN=C(SCc3ccc(Cl)cc3)N21
active: AC50 [1] 1.04 µM | AC50 [5] 0.891 µM | AC50 (HEK293) 4.73 µM | AC50 [3] 0.876 µM | AC50 [4] 0.796 µM

CC(=O)NS(=O)(=O)c1ccc(/N=c2\ssc3c2-c2ccc(C)cc2NC3(C)C)cc1
active: IC50 (Leucine aminopeptidase) 2.6 µM | EC50 [10] 2.31 µM | EC50 (Streptococcus) 12.1 µM | IC50 (Aminopeptidase N) 89.3 µM
inactive: AC50 [11] > 100 µM
> 150 µM (not active): EC50 (Streptokinase A)

COc1cccc(/C=N/NC(=O)CC2C(=O)NN=C2C)c1O (stereo unspecified)
inactive: AC50 [1] > 70 µM
active: IC50 (Leucine aminopeptidase) 92.1 µM | AC50 [3] 49.9 µM
